Measured values reported in PMC8628145 (Cancer chemotherapy and pharmacology, 2021).
Where “and” joins values, the source holds several entries; their conditions need not be identical. Equal entries are not always repeated.

Key:
[1] = Plasma pharmacokinetics of tivantinib and metabolites; settings: for Cl/F: first dose, based on AUC0–inf; for half-life: t½
[2] = biological target: p-Tyr1234/5-Met (Homo sapiens, UniProt P08581); assay: Skin biopsy immunohistochemistry, p-MET expression; type: in vivo; settings: skin biopsies following tivantinib (with bevacizumab), C1D15
Sequence of p-Tyr1234/5-Met (P08581 25-1390): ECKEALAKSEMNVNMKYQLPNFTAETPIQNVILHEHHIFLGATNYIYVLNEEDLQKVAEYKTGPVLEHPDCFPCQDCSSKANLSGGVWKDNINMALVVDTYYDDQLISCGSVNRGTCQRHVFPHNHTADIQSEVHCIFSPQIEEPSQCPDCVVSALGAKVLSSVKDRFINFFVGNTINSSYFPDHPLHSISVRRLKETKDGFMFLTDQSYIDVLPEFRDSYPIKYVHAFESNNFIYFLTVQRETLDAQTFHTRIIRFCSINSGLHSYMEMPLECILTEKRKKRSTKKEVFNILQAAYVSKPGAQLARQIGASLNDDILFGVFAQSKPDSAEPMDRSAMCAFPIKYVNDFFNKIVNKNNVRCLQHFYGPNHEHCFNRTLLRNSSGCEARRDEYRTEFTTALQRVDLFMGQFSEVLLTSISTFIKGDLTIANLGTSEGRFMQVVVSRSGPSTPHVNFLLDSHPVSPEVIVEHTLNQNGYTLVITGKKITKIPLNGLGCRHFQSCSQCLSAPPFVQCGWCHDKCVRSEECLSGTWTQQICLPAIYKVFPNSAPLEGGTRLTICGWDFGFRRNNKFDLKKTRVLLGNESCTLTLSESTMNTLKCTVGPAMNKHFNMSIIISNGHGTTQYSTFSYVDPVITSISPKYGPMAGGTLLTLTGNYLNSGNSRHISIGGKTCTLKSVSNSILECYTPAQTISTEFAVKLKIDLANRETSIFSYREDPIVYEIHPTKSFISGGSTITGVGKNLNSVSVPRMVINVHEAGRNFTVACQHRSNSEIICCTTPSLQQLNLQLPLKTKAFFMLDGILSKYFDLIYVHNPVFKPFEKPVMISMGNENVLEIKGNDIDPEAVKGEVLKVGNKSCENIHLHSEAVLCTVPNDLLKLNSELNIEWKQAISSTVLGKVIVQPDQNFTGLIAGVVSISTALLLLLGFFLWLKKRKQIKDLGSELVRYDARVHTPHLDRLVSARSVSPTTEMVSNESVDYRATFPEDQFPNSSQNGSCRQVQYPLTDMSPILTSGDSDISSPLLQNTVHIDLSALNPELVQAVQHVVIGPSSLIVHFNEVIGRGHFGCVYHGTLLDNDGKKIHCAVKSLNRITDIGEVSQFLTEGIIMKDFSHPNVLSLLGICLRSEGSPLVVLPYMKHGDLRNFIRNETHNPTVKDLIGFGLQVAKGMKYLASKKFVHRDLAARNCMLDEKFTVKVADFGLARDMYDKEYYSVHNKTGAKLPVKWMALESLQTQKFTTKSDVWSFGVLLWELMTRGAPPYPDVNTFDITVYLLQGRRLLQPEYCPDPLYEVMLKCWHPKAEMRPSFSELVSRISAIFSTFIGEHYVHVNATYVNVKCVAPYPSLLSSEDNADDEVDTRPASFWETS

[3] = tested on: HGF; assay: Plasma HGF level; type: in vivo, human
[4] = tested on: CYP3A4; settings: at 50 µM (~ 18 µg/mL); ArQule data on file; cited from earlier work
[5] = tested on: PlGF; assay: Plasma placental growth factor level; type: in vivo, human
[6] = tested on: tubulin; assay: Tubulin polymerization assay; type: biochemical; settings: supplemental Fig. 3B
[7] = tested on: beta-tubulin; assay: Skin biopsy immunohistochemistry, tubulin expression; type: in vivo, human; settings: skin biopsies, oral tivantinib for two weeks (with bevacizumab), C1D15
[8] = tested on: β-tubulin; assay: Total β-tubulin expression in patient PBMCs by immunoblot; type: in vivo, human; settings: following tivantinib treatment, data not shown
[9] = day 5, previously reported; cited from earlier work
[10] = biological target: Met (Homo sapiens, UniProt P08581); assay: Skin biopsy immunohistochemistry, total MET expression; type: in vivo; settings: skin biopsies after tivantinib treatment
Sequence of Met (P08581 25-1390): as above

[11] = human, in vivo, 1 day
[12] = tested on: VEGF-A; assay: Plasma VEGF-A level; type: in vivo, human
[13] = tested on: human RKO colon cancer cells; assay: Immunoblot of α- and β-tubulin expression in RKO cells; type: cell-based; settings: supplemental Fig. 3A
[14] = tested on: bFGF; assay: Plasma bFGF level; type: in vivo, human
[15] = tested on: soluble VEGFR1 (sVEGFR1); assay: Plasma soluble VEGFR1 level; type: in vivo, human
[16] = addition of tivantinib to bevacizumab

Compound: O=C1NC(=O)[C@@H](c2cn3c4c(cccc24)CCC3)[C@@H]1c1c[nH]c2ccccc12 [tivantinib]
- t½ ([1]; Total (N = 11), all dose levels, day 1, plasma, mean (SD)): 5.1 (2.4) h
- Cl/F ([1]; Total (N = 11), mean (SD)): 24.9 L/h
- AUC(0-t) ([1]; human, plasma, oral, AUC0–8, tivantinib 360/240 mg AM/PM (N = 1), day 1, plasma): 5020 ng·h/mL
- Tmax ([1]; human, plasma, oral, Tmax, tivantinib 120/120 mg AM/PM (N = 1), day 1, plasma): 2.5 h
- Tmax ([1]; human, plasma, oral, Tmax, tivantinib 360/240 mg AM/PM (N = 1), day 1, plasma): 3 h
- half-life ([1]; human, plasma, oral, tivantinib 120/120 mg AM/PM (N = 1), day 1, plasma): 8.2 h
- half-life ([1]; human, plasma, oral, tivantinib 360/240 mg AM/PM (N = 1), day 1, plasma): 9.2 h
- Tmax ([1]; human, plasma, po, Time of peak plasma concentration, day 1, all 11 patients): ~3 h
- AUC0–8 ([1]; tivantinib 120/120 mg AM/PM (N = 1), day 1, plasma): 5570 ng·h/mL
- Cl/F ([1]; tivantinib 120/120 mg AM/PM (N = 1)): 9.43 L/h
- Cl/F ([1]; tivantinib 360/240 mg AM/PM (N = 1)): 25.8 L/h
- Time for accumulation to reach steady-state ([1]; twice daily dosing): ≤ 24 h
- Patients with reduced p-MET expression in skin [2]: 7/11 and 7 of 11
- Plasma HGF concentrations ([3]; addition of tivantinib, in the six patients with increase after bevacizumab): decreased in these same patients
- Time-dependent inhibition of CYP3A4 [4]: exhibits time-dependent inhibition
- Plasma PIGF concentrations [5, 16]: did not alter PIGF concentrations
- Tubulin polymerization [6]: inhibited tubulin polymerization, but not to the same extent as vincristine
- Patients with substantial reductions in tubulin expression in skin [7]: 4/11 and 4 of 11
- Tubulin expression in patient PBMCs [8]: No significant differences
- Steady-state clearance [9]: 11.8 L/h
- Total MET expression in the cytoplasm (skin) [10]: remained unchanged
- Dose-normalised exposure on day 1 [11]: 5.82 ng/mL/mg
- Plasma VEGF-A concentrations [12, 16]: did not alter VEGF-A concentrations
- α- and β-tubulin protein expression [13]: loss of both α- and β-tubulin protein expression
- Plasma bFGF concentrations ([14]; day 15, following 14 days of tivantinib added to bevacizumab, p = 0.047): returned to baseline in most patients
- Plasma sVEGFR1 concentrations ([15]; following tivantinib administration): increased in four patients

Compound: CC[C@]1(O)C[C@H]2CN(CCc3c([nH]c4ccccc34)[C@@](C(=O)OC)(c3cc4c(cc3OC)N(C=O)[C@H]3[C@@](O)(C(=O)OC)[C@H](OC(C)=O)[C@]5(CC)C=CCN6CC[C@]43[C@@H]65)C2)C1 [vincristine, reference compound]
- α- and β-tubulin protein expression [13]: loss of both α- and β-tubulin protein expression

Compound: bevacizumab [reference compound]
- Plasma HGF concentrations ([3]; after bevacizumab treatment): increased in six patients
- Average increase of plasma PIGF ([5]; after bevacizumab treatment): 60%
- Patients with increased plasma PIGF ([5]; after bevacizumab treatment, p = 0.005): 10 of 11
- Plasma VEGF-A ([12]; after bevacizumab treatment): decreased expression of VEGF-A in two patients (#01; #07) and increases in eight patients
- Patients with increased plasma bFGF ([14]; after bevacizumab-only lead-in (day 1 vs day − 15), p = 0.008): 8 of 11
- Plasma sVEGFR1 concentrations ([15]; after bevacizumab administration, five patients with elevated baseline): decreased
